Literature values as cited in US20130344150A1, “DIRECT COMPRESSION TABLETS OF OTILONIUM” (Abdi Ibrahim IIac Sanayi Ve Ticaret Anonim Sirketi, priority 2009, published 2013).

Assays:
[1] = system: gastrointestinal-motility; settings: baseline and chemically or physically stimulated
[2] = clinical studies

CCCCCCCCOc1ccccc1C(=O)Nc1ccc(C(=O)OCC[N+](C)(CC)CC)cc1 [otilonium bromide]
effect on gastrointestinal-motility [1]: inhibits both baseline and chemically or physically stimulated gastrointestinal-motility
tolerability [2]: good tolerability profile
